In brackets after ≈: the same amount, converted by molar mass. Several values for one entry are separate records, joined by “and”; a condition that tells them apart may be missing. Equal values may be shown once. Read-outs that look alike come from different tables or passages of the source.
Legend:
[1] = tested on: S. aureus isolates; experiment: Kirby-Bauer disk diffusion antimicrobial susceptibility testing; assay type: cell-based, Staphylococcus aureus; further: key: R: Resistant; S: Susceptible
Description: Three MRSA, two MSSA clinical isolates, and one S. aureus reference strain (ATCC 25923) were investigated in this study. […] The presence of the mecA/mecC gene was studied by PCR in all cefoxitin resistant isolates[42],[43].

[2] = tested on: Human red blood cells; experiment: Hemolysis assay; details: human erythrocytes, 1 h, 37 °C
Procedure: The assay was performed using fresh human blood samples containing citrate phosphate dextrose anticoagulant collected from a blood bank (Iranian Blood Transfusion Organization). Human red blood cells (RBC) were centrifuged at 1700×g for 5 min; then the supernatant was removed and the erythrocyte pellet was diluted 1:100 in PBS to obtain a 1% erythrocyte suspension. […] Then, 50 μl of the 1% erythrocyte suspension and 50 μl of the peptides were mixed and added to wells of a 96-well polypropylene conical bottom microplate and incubated at 37 °C for 1 h. Following centrifugation of the samples at 1700×g for 5 min, 50 μl of the supernatant was transferred to wells of a 96-well flat-bottom plate for the absorbance measurement at 405 nm in a microplate reader. Identical volumes of Triton X-100 (1%) and PBS were used as positive and negative controls, respectively. The selectivity indexes (SI) were also determined as a toxicity indicator.

[3] = tested on: one MRSA and reference strain (ATCC25923); experiment: Time-kill kinetics assay
Procedure: The peptide-free control was included for each strain. Following incubation at 37 °C for 0, 0.25, 0.5, 1, 2, 4, 5, and 24 h, each sample was serially diluted, plated onto Mueller–Hinton (MH) agar (Merck, Germany) plates and incubated at 37 °C. The viable plate count method was performed after incubation for 24 h and the counts were expressed as Log CFU/ml[44].

[4] = tested on: S. aureus isolates; experiment: microbe, parasite or virus in culture; assay type: cell-based, Staphylococcus aureus
Procedure: (§1) Minimum inhibitory concentrations (MIC) of KLK, mKLK, and vancomycin were determined using microdilution broth assay according to clinical and laboratory standards institute (CLSI) guidelines with some modifications. Briefly, overnight cultures were diluted in Muller-Hinton broth (MHB; Merck, Germany) to achieve a final density of 5 × 10^5 CFU/ml. A volume of 100 μl of bacterial suspension was added to wells of sterile 96-well plates containing 100 μl of two-fold peptide dilutions, ranging from 0.25 to 256 µg/ml. Vancomycin was used as a positive control in this assay. […] MBC was determined by removing samples from wells with no visible growth, serially diluting, and plating on Mueller Hinton (MH) agar plates for CFU counting.

[5] = tested on: S. aureus isolates; assay type: cell-based, Staphylococcus aureus
Procedure: as §1

[6] = tested on: drug resistant Mycobacterium abscessus isolates; parameters: method as in ref 33 (Sudadech et al.); details: ref 33 (Sudadech et al.), cited from earlier work
[7] = tested on: clinical Salmonella isolates; parameters: method as in PMID 34361810; details: cited from earlier work

Compound: CC1(C)S[C@@H]2[C@H](NC(=O)[C@H](N)c3ccccc3)C(=O)N2[C@H]1C(=O)O [AMP, Ampicilln]
- Antimicrobial susceptibility testing ([1]; MRSA-1): R
- Antimicrobial susceptibility testing ([1]; MRSA-2): R
- Antimicrobial susceptibility testing ([1]; MRSA-3): R
- Antimicrobial susceptibility testing ([1]; MSSA-1): S
- Antimicrobial susceptibility testing ([1]; MSSA-2): S

Compound: O=C(N[C@H](CO)[C@H](O)c1ccc([N+](=O)[O-])cc1)C(Cl)Cl [C, Chloramphenicol]
- Antimicrobial susceptibility testing ([1]; MRSA-1): S
- Antimicrobial susceptibility testing ([1]; MRSA-2): S
- Antimicrobial susceptibility testing ([1]; MRSA-3): S
- Antimicrobial susceptibility testing ([1]; MSSA-1): S
- Antimicrobial susceptibility testing ([1]; MSSA-2): S

Compound: CC[C@H]1OC(=O)[C@H](C)[C@@H](O[C@H]2C[C@@](C)(OC)[C@@H](O)[C@H](C)O2)[C@H](C)[C@@H](O[C@@H]2O[C@H](C)C[C@H](N(C)C)[C@H]2O)[C@](C)(O)C[C@@H](C)C(=O)[C@H](C)[C@@H](O)[C@]1(C)O [E, Erythromycin]
- Antimicrobial susceptibility testing ([1]; MRSA-1): S
- Antimicrobial susceptibility testing ([1]; MRSA-2): S
- Antimicrobial susceptibility testing ([1]; MRSA-3): S
- Antimicrobial susceptibility testing ([1]; MSSA-1): S
- Antimicrobial susceptibility testing ([1]; MSSA-2): S

Compound: CO/N=C(\C(=O)N[C@@H]1C(=O)N2C(C(=O)[O-])=C(C[N+]3(C)CCCC3)CS[C@H]12)c1csc(N)n1 [FEP, Cefepime]
- Antimicrobial susceptibility testing ([1]; MRSA-1): R
- Antimicrobial susceptibility testing ([1]; MRSA-2): R
- Antimicrobial susceptibility testing ([1]; MRSA-3): R
- Antimicrobial susceptibility testing ([1]; MSSA-1): S
- Antimicrobial susceptibility testing ([1]; MSSA-2): S

Compound: CO[C@@]1(NC(=O)Cc2cccs2)C(=O)N2C(C(=O)O)=C(COC(N)=O)CS[C@@H]21 [FOX, Cefoxicitin]
- Antimicrobial susceptibility testing ([1]; MRSA-1): R
- Antimicrobial susceptibility testing ([1]; MRSA-2): R
- Antimicrobial susceptibility testing ([1]; MRSA-3): R
- Antimicrobial susceptibility testing ([1]; MSSA-1): S
- Antimicrobial susceptibility testing ([1]; MSSA-2): S

Compound: CNC(C)C1CCC(N)C(OC2C(N)CC(N)C(OC3OCC(C)(O)C(NC)C3O)C2O)O1 (centres unmarked) [GEN, Gentamicin]
- Antimicrobial susceptibility testing ([1]; MRSA-1): S
- Antimicrobial susceptibility testing ([1]; MRSA-2): S
- Antimicrobial susceptibility testing ([1]; MRSA-3): S
- Antimicrobial susceptibility testing ([1]; MSSA-1): S
- Antimicrobial susceptibility testing ([1]; MSSA-2): S

Compound: CC[C@H](C)[C@H](NC(=O)[C@H](CCCCN)NC(=O)[C@H](CCC(=O)O)NC(=O)[C@H](CCCCN)NC(=O)[C@H](CO)NC(=O)[C@H](CCCCN)NC(=O)[C@H](CCCNC(=N)N)NC(=O)[C@H](Cc1ccccc1)NC(=O)[C@H](Cc1ccccc1)NC(=O)[C@H](CC(=O)O)NC(=O)CNC(=O)[C@H](CC(C)C)NC(=O)[C@@H](N)CC(C)C)C(=O)NCC(=O)N[C@@H](CCCCN)C(=O)N[C@@H](CCC(=O)O)C(=O)N[C@@H](Cc1ccccc1)C(=O)N[C@@H](CCCCN)C(=O)N[C@@H](CCCNC(=N)N)C(=O)N[C@H](C(=O)N[C@H](C(=O)N[C@@H](CCC(N)=O)C(=O)N[C@@H](CCCNC(=N)N)C(=O)N[C@H](C(=O)N[C@@H](CCCCN)C(=O)N[C@@H](CC(=O)O)C(=O)N[C@@H](Cc1ccccc1)C(=O)N[C@@H](CC(C)C)C(=O)N[C@@H](CCCNC(=N)N)C(=O)N[C@@H](CC(N)=O)C(=O)N[C@@H](CC(C)C)C(=O)N[C@H](C(=O)N1CCC[C@H]1C(=O)N[C@@H](CCCNC(=N)N)C(=O)N[C@H](C(=O)N[C@@H](CCC(=O)O)C(=O)N[C@@H](CO)C(=O)O)[C@@H](C)O)C(C)C)[C@@H](C)CC)C(C)C)[C@@H](C)CC [LL-37]
- HC50 [2]: 150 µM and 673.5 µg/ml

Compound: CC(=O)NC[C@H]1CN(c2ccc(N3CCOCC3)c(F)c2)C(=O)O1 [LZD, Linezolide]
- Antimicrobial susceptibility testing ([1]; MRSA-1): S
- Antimicrobial susceptibility testing ([1]; MRSA-2): S
- Antimicrobial susceptibility testing ([1]; MRSA-3): S
- Antimicrobial susceptibility testing ([1]; MSSA-1): S
- Antimicrobial susceptibility testing ([1]; MSSA-2): S

Compound: CO[C@H]1/C=C/O[C@@]2(C)Oc3c(C)c(O)c4c(O)c(c(/C=N/N5CCN(C)CC5)c(O)c4c3C2=O)NC(=O)/C(C)=C\C=C\[C@H](C)[C@H](O)[C@@H](C)[C@@H](O)[C@@H](C)[C@H](OC(C)=O)[C@@H]1C [RP, Rifampicin]
- Antimicrobial susceptibility testing ([1]; MRSA-1): S
- Antimicrobial susceptibility testing ([1]; MRSA-2): S
- Antimicrobial susceptibility testing ([1]; MRSA-3): S
- Antimicrobial susceptibility testing ([1]; MSSA-1): S
- Antimicrobial susceptibility testing ([1]; MSSA-2): S

Compound: CN(C)[C@@H]1C(O)=C(C(N)=O)C(=O)[C@@]2(O)C(O)=C3C(=O)c4c(O)cccc4[C@@](C)(O)[C@H]3C[C@@H]12 [TE, Tetracycline]
- Antimicrobial susceptibility testing ([1]; MRSA-1): R
- Antimicrobial susceptibility testing ([1]; MRSA-2): R
- Antimicrobial susceptibility testing ([1]; MRSA-3): R
- Antimicrobial susceptibility testing ([1]; MSSA-1): R
- Antimicrobial susceptibility testing ([1]; MSSA-2): R

Compound: CN[C@H](CC(C)C)C(=O)N[C@H]1C(=O)N[C@@H](CC(N)=O)C(=O)N[C@H]2C(=O)N[C@H]3C(=O)N[C@H](C(=O)N[C@H](C(=O)O)c4cc(O)cc(O)c4-c4cc3ccc4O)[C@H](O)c3ccc(c(Cl)c3)Oc3cc2cc(c3O[C@@H]2O[C@H](CO)[C@@H](O)[C@H](O)[C@H]2O[C@H]2C[C@](C)(N)[C@H](O)[C@H](C)O2)Oc2ccc(cc2Cl)[C@H]1O [vancomycin, Vancomycin]
- time after which no regrowth was observed ([3]; ATCC 25923, 1 × MIC (0.25 μg/ml)): 24 h
- reduction in viable cell count ([3]; ATCC 25923, 1 × MIC, during 4 h): ~ 3 log
- time after which no regrowth was observed ([3]; ATCC 25923, 2 × MIC): 24 h
- reduction in viable cell count ([3]; ATCC 25923, 2 × MIC, within 4 h): ~ 4 log
- time after which no regrowth was observed ([3]; MRSA, 1 × MIC): 24 h
- reduction in viable cell count ([3]; MRSA, 1 × MIC (0.5 μg/ml), during 5 h): ~ 2 log
- time after which no growth was observed ([3]; MRSA, 2 × MIC (1 μg/ml)): 24 h
- reduction in viable cell count ([3]; MRSA, 2 × MIC (1 μg/ml), within 4 h): ~ 2 log
- reduction in viable cell count ([3]; MRSA, 2 × MIC (1 μg/ml), within 5 h): ~3 log
- Antimicrobial susceptibility testing ([1]; MRSA-1): S
- Antimicrobial susceptibility testing ([1]; MRSA-2): S
- Antimicrobial susceptibility testing ([1]; MRSA-3): S
- Antimicrobial susceptibility testing ([1]; MSSA-1): S
- Antimicrobial susceptibility testing ([1]; MSSA-2): S
- MIC ([4]; ATCC25923): 0.25 µg/mL (≈ 0.173 µM)
- MIC ([4]; MRSA-1): 0.25 µg/mL (≈ 0.173 µM)
- MIC ([4]; MRSA-2): 0.5 µg/mL (≈ 0.345 µM)
- MIC ([4]; MRSA-3): 0.5 µg/mL (≈ 0.345 µM)
- MIC ([4]; MSSA-1): 0.25 µg/mL (≈ 0.173 µM)
- MIC ([4]; MSSA-2): 0.25 µg/mL (≈ 0.173 µM)
- MIC ([4]; Staphylococcus aureus): 0.25 to 0.5 µg/mL (≈ 0.173 to 0.345 µM)
- MBC ([5]; ATCC25923): 0.25 µg/mL (≈ 0.173 µM)
- MBC ([5]; MRSA-1): 0.5 µg/mL (≈ 0.345 µM)
- MBC ([5]; MRSA-2): 0.5 µg/mL (≈ 0.345 µM)
- MBC ([5]; MRSA-3): 0.5 µg/mL (≈ 0.345 µM)
- MBC ([5]; MSSA-1): 0.25 µg/mL (≈ 0.173 µM)
- MBC ([5]; MSSA-2): 0.25 µg/mL (≈ 0.173 µM)

Compound: Amoxicillin/clavulanic acid [AMC]
- Antimicrobial susceptibility testing ([1]; MRSA-1): R
- Antimicrobial susceptibility testing ([1]; MRSA-2): R
- Antimicrobial susceptibility testing ([1]; MRSA-3): R
- Antimicrobial susceptibility testing ([1]; MSSA-1): S
- Antimicrobial susceptibility testing ([1]; MSSA-2): S

Compound: KLKLLLLLKL [KLK1, variant of KLK]
- killing ([6]; against 62.5% of the tested isolates within 24 h): ~ 99%
- MIC ([6]; drug resistant Mycobacterium abscessus isolates): < 50 µg/mL
- MIC [7]: > 256 µM

Compound: Trimethoprim/sulphamethoxazole [SXT]
- Antimicrobial susceptibility testing ([1]; MRSA-1): S
- Antimicrobial susceptibility testing ([1]; MRSA-2): S
- Antimicrobial susceptibility testing ([1]; MRSA-3): R
- Antimicrobial susceptibility testing ([1]; MSSA-1): S
- Antimicrobial susceptibility testing ([1]; MSSA-2): S

Source: PMC10817945, “Design of a novel analogue peptide with potent antibiofilm activities against Staphylococcus aureus based upon a sapecin B-derived peptide” (Scientific Reports, 2024)
